Non-standard residues stand in square brackets, D forms with d. No end group written: not given here. Phe(4-NO2) = N[C@@H](Cc1ccc([N+](=O)[O-])cc1)C(=O)O
Experiments:
[1] = cited from earlier work; for analgesic potency compared with morphine: systemic administration; for analgesic effect: systemic route of administration
μ and δ receptors = details: cited from earlier work
rats = assay: 30 days toxicity study by subcutaneous route in rat; assay type: in vivo; details: s.c. once daily 30 days, 7.5, 15.0 and 30.0 mg/kg
Description: (§1) 30 days toxicity study or L-Tyrosyl-D-alanyl-glycyl-N-methylphenylalanyl-glycyl-isopropylamide in rat and rhesus monkey by subcutaneous route.
(§2) Compound L-Tyrosyl-D-alanyl-glycyl-N-methylphenytalanyt-glycyl-isopropylamide dissolved in saline was given daily by subcutaneous route to groups of rats (n=10 males and 10 females in each group) and rhesus monkeys ([…] and 2 females in each group) once daily for 30 consecutive days. The dose levels used in rats were 0.0, 7.5, 15.0 and 30.0 mg/kg and in monkeys 0.0, 3.75, 7.5 and 15 mg/kg. Dose levels were selected on the basis of rat ED of 3.0 mg/kg and extrapolation thereof in the monkey.
(§3) A careful general inspection of the animals was done at least once each day Cage-side observations included changes in skin and fur, eyes and mucous membranes, general activity and behavior and also general signs of abnormal functioning of respiratory, circulators, autonomic and central nervous system and somatomotor activity. Body weights (weekly in rats initial and day 30 in monkeys), daily food (rat and monkeys) and water (rat only) consumption and parameters of hematology urinalysis and blood biochemistry of the animals was recorded All the animals were sacrificed at the end of 30 days. Necropsy was performed and histophathological examination of all the important organs and tissues were done. […]

[2] = Addiction liabilities and tolerance (background); assay type: in vivo; details: compared to morphine
rhesus monkeys = assay: 30 days toxicity study by subcutaneous route in rhesus monkey; assay type: in vivo; details: s.c. once daily 30 days, 3.75, 7.5 and 15 mg/kg
Description: as §1, §2, §3

[3] = Chronic and subacute toxicity studies (background); details: in vivo
[4] = CNS and cardiovascular effects (background); details: in vivo
LD50 in mice = details: mouse, in vivo, ip
Description: It is evident from above table that the ED50 of beta CD complex is about one third than the compound L-Tyrosyl-D-alanyl-glycyl-N-methylphenylalanyl-glycyl-isopropylamide by subcutaneous route and was one half by oral route. The LD50 of the compound L-Tyrosyl-D-alanyl-glycyl-N-methylphenylalanyl-glycyl-isopropylamide is 1000 mg/Kg i.p., and that of the complex is >10,000 mg/kg P. O. in mice.

leucine amino peptidase = details: enzyme hydrolysis with leucine amino peptidase; cited from earlier work

Compound: Tyr-Arg-Gly-Phe(pNO2)-Pro-NH2 (YRG[Phe(4-NO2)]P-NH2; N-terminus assumed; SMILES N=C(N)NCCC[C@H](NC(=O)[C@@H](N)Cc1ccc(O)cc1)C(=O)NCC(=O)N[C@@H](Cc1ccc([N+](=O)[O-])cc1)C(=O)N1CCC[C@H]1C(N)=O) [BW-443C, enkephalin analog]
- analgesic potency compared with morphine [1]: more potent analgesic than morphine

Compound: Tyr-D-Ala-Gly-Phe-MeMet-NH2 [met-kephamid]
- analgesic effect [1]: strong analgesic effect
- opioid receptor selectivity (μ and δ receptors): essentially non-elective for μ and δ receptors

Compound: CC(C)NC(=O)CNC(=O)[C@H](Cc1ccccc1)N(C)C(=O)CNC(=O)[C@@H](C)NC(=O)[C@@H](N)Cc1ccc(O)cc1 [L-Tyrosyl-D-alanyl-glycyl-N-methylphenylalanyl-glycyl-isopropylamide]
- 30-day toxicity finding (rats): safe
- tolerance and addiction properties [2]: significantly reduced tolerance and addiction properties as compared to morphine
- 30-day toxicity finding (rhesus monkeys): safe
- chronic and subacute toxicity finding [3]: safe and did not produce any noticeable toxic side effects
- CNS effects like sedation and respiratory depression [4]: virtually devoid of any major CNS effects
- cardiovascular effects [4]: virtually devoid of any significant cardiovascular effects
- LD50 (LD50 in mice): 1000 mg/kg

Compound: Leu-enkephalin
- half life (leucine amino peptidase): 45 min

Compound: Y[dM]GFP-NH2
- analgesic potency compared with morphine [1]: more potent analgesic than morphine

Compound: Tyr-D-Ala-Gly,-Met(o)-01 [FK-33-824]
- analgesic effect [1]: strong analgesic effect
- opioid receptor selectivity (μ and δ receptors): only slight preference for p-receptors
